Test results published in patent US20210220376A1, “ADDICTION TREATMENT OF AN ALCOHOL-CONSUMING PATIENT POPULATION” (Amygdala Neurosciences, Inc., priority 2018, published 2021).

Tested on: healthy male alcohol drinkers
Test: Phase 1 single-ascending-dose study of compound (2) coadministered with ethanol: safety
Assay type: in vivo, human
Protocol: This was a single-center, randomized, double-blind, placebo-controlled, single-ascending-dose cohort study to evaluate the safety and tolerability of the coadministration of up to 6 dose levels of compound (2) (25 mg, 50 mg, 100 mg, 200 mg, 400 mg and 600 mg) and EtOH in healthy male alcohol drinkers.
Within 27 days of the medical screening visit, subjects were enrolled and attended an inpatient Qualification Phase in which they received up to 5 standard drinks (14 grams of EtOH each; oral solution of vodka containing 40% [v/v] EtOH, mixed with a non-carbonated beverage, one drink every 30 minutes) to evaluate their tolerance to repeat administration to ensure they could safely tolerate the planned EtOH treatment. A minimum washout interval of 44 hours was performed between initiation of the last EtOH administration in the Qualification Phase and study drug administration in the Treatment Phase.
Following qualification, eligible subjects were enrolled and randomized to receive compound (2) or placebo in a 3:1 fashion in each of 6 cohorts (8 subjects per cohort). As a safety precaution, no more than 4 subjects were administered study drug on any given day. Planned compound (2) dose levels included doses of 25 mg, 50 mg, 100 mg, 200 mg, 400 mg, and 600 mg. Study drug administration occurred approximately 1 hour following ingestion of a standardized (moderate-fat) meal. Approximately 2 hours after receiving the study drug, subjects began a session of repeat EtOH administration, during which they could receive up to 5 doses of EtOH (14 grams each, approximately 1 standard drink) every 30 minutes, or until a stopping criterion applied. Safety assessments, pharmacodynamic assessments and pharmacokinetic blood sample collections were obtained up to 48 hours post-dose. Subjects were discharged after 48-hour post-dose procedures were completed and the investigator deemed it safe to do so. Subjects returned for the safety follow-up visit approximately 7 (±2) days following discharge from the Treatment Phase or after early discontinuation from the study.
The primary endpoints included frequency and severity of adverse events (AEs), ethanol reaction (ER) scores and flushing, laboratory values, vital signs, and electrocardiograms (ECGs).
Subjects' ER scores and flushing were summarized descriptively by timepoint, category and treatment. In addition, flushing, ER heat sensation and ER palpitation were compared between each of the active doses and placebo using a mixed-effect model for repeated measures (MMRM) analysis with treatment, visit, and treatment by visit as fixed effects and baseline as a covariate. The actual value was used as the dependent variable and visit included pre-EtOH, 30 minutes, 60 minutes, 90 minutes, 120 minutes, 150 minutes and 3 hours relative to the first EtOH administration in Treatment Phase. The variance-covariance matrix was assumed to be unstructured. […] Results were presented as least square means (LSMEANS), treatment differences in LSMEANS, 95% confidence intervals (CI) and p-values.
Vital signs measurements (respiratory rate, systolic and diastolic blood pressure, and heart rate) were summarized by treatment and visit. Heart rate and diastolic blood pressure were also compared between each of the active doses and placebo using an MMRM analysis with treatment, visit, and treatment by visit as fixed effects and baseline as a covariate.
Twelve-lead ECG results were summarized by timepoint and treatment, and frequencies (numbers and percentages) were calculated for the overall evaluation. Concomitant medications, clinical laboratory evaluations (raw data and change from baseline, as applicable) and physical examination findings were listed.

[1] = 25 mg, 105 min after first EtOH
[2] = 25 mg, 135 min after first EtOH
[3] = 50 mg, 105 min after first EtOH
[4] = 50 mg, 135 min after first EtOH
[5] = 100 mg, 15 min after first EtOH
[6] = 100 mg, 45 min after first EtOH
[7] = 100 mg, 75 min after first EtOH
[8] = 100 mg, 105 min after first EtOH
[9] = 100 mg, 135 min after first EtOH
[10] = 200 mg, 15 min after first EtOH
[11] = 200 mg, 45 min after first EtOH
[12] = 200 mg, 75 min after first EtOH
[13] = 200 mg, 105 min after first EtOH

In the case of `O=C(NCc1ccc(-c2ccn(COP(=O)(O)O)c(=O)c2)cc1)c1c(Cl)cccc1Cl` [Compound (2), phosphoric acid mono-(4-{4-[(2,6-dichloro-benzoylamino)-methyl]-phenyl}-2-oxo-2H-pyridin-1-ylmethyl) ester], the flushing (25 mg) is reported as “not observed”, the “subjects reporting a TEAE” value (25 mg) is reported as 66.7% and the “Diastolic Blood Pressure, Mean” value (25 mg, 15 min after first EtOH) is reported as 76.0 mmHg. The “Systolic Blood Pressure, Mean” value (25 mg, 15 min after first EtOH) was 120.3 mmHg, the “Diastolic Blood Pressure, Mean” value (25 mg, 45 min after first EtOH) was 75.5 mmHg and the “Heart Rate, Mean” value (25 mg, 45 min after first EtOH) was 65.3 beats/min. The “Systolic Blood Pressure, Mean” value (25 mg, 45 min after first EtOH) was 120.5 mmHg, the “QTcF Interval, Aggregate, Mean” value (25 mg, 1 hour after initiation of repeat EtOH administration session) was 406.7 ms and the “Diastolic Blood Pressure, Mean” value (25 mg, 75 min after first EtOH) was 75.8 mmHg. The “Heart Rate, Mean” value (25 mg, 75 min after first EtOH) was 63.5 beats/min, the “Systolic Blood Pressure, Mean” value (25 mg, 75 min after first EtOH) was 120.7 mmHg and the “Diastolic Blood Pressure, Mean” value [1] was 74.0 mmHg. For the same compound, the “Heart Rate, Mean” value [1] was 66.5 beats/min, the “Systolic Blood Pressure, Mean” value [1] was 118.2 mmHg and the “Diastolic Blood Pressure, Mean” value [2] was 75.0 mmHg. The “Heart Rate, Mean” value [2] was 64.7 beats/min, the “Systolic Blood Pressure, Mean” value [2] was 119.0 mmHg and the “Diastolic Blood Pressure, Mean” value (25 mg, Pre-EtOH) was 73.5 mmHg. For the same compound, the “Heart Rate, Mean” value (25 mg, Pre-EtOH) was 59.5 beats/min, the “Systolic Blood Pressure, Mean” value (25 mg, Pre-EtOH) was 117.2 mmHg and the “QTcF Interval, Aggregate, Mean” value (25 mg, prior to initiation of repeat EtOH administration session) was 403.7 ms. The “subjects reporting a TEAE” value (50 mg) was 83.3%, the “Diastolic Blood Pressure, Mean” value (50 mg, 15 min after first EtOH) was 73.3 mmHg and the “Systolic Blood Pressure, Mean” value (50 mg, 15 min after first EtOH) was 116.7 mmHg. The “Diastolic Blood Pressure, Mean” value (50 mg, 45 min after first EtOH) was 75.2 mmHg, the “Heart Rate, Mean” value (50 mg, 45 min after first EtOH) was 72.7 beats/min and the “Systolic Blood Pressure, Mean” value (50 mg, 45 min after first EtOH) was 119.5 mmHg. The “QTcF Interval, Aggregate, Mean” value (50 mg, 1 hour after initiation of repeat EtOH administration session) was 402.5 ms, the “Diastolic Blood Pressure, Mean” value (50 mg, 75 min after first EtOH) was 73.8 mmHg and the “Heart Rate, Mean” value (50 mg, 75 min after first EtOH) was 80.5 beats/min. The “Systolic Blood Pressure, Mean” value (50 mg, 75 min after first EtOH) was 117.5 mmHg, the “Diastolic Blood Pressure, Mean” value [3] was 71.8 mmHg and the “Heart Rate, Mean” value [3] was 81.8 beats/min. The “Systolic Blood Pressure, Mean” value [3] was 117.5 mmHg, the “Diastolic Blood Pressure, Mean” value [4] was 78.7 mmHg and the “Heart Rate, Mean” value [4] was 76.8 beats/min. The “Systolic Blood Pressure, Mean” value [4] was 123.7 mmHg, the “Diastolic Blood Pressure, Mean” value (50 mg, Pre-EtOH) was 74.5 mmHg and the “Heart Rate, Mean” value (50 mg, Pre-EtOH) was 56.7 beats/min. For the same compound, the “Systolic Blood Pressure, Mean” value (50 mg, Pre-EtOH) was 115.7 mmHg, the “subjects with TEAE of tachyarrhythmia” value (50 mg, after EtOH) was “one” and the “QTcF Interval, Aggregate, Mean” value (50 mg, prior to initiation of repeat EtOH administration session) was 400.7 ms. The “subjects reporting a TEAE” value (100 mg) was 100%, the “Diastolic Blood Pressure, Mean” value [5] was 72.0 mmHg and the “Systolic Blood Pressure, Mean” value [5] was 119.2 mmHg. For the same compound, the “Diastolic Blood Pressure, Mean” value [6] was 70.2 mmHg, the “Heart Rate, Mean” value [6] was 70.5 beats/min and the “Systolic Blood Pressure, Mean” value [6] was 120.0 mmHg. For the same compound, the “QTcF Interval, Aggregate, Mean” value (100 mg, 1 hour after initiation of repeat EtOH administration session) was 405.3 ms, the “Diastolic Blood Pressure, Mean” value [7] was 70.7 mmHg and the “Heart Rate, Mean” value [7] was 81.8 beats/min. For the same compound, the “Systolic Blood Pressure, Mean” value [7] was 120.2 mmHg, the “Diastolic Blood Pressure, Mean” value [8] was 69.5 mmHg and the “Heart Rate, Mean” value [8] was 83.8 beats/min. The “Systolic Blood Pressure, Mean” value [8] was 125.3 mmHg, the “Diastolic Blood Pressure, Mean” value [9] was 68.2 mmHg and the “Heart Rate, Mean” value [9] was 81.3 beats/min. For the same compound, the “Systolic Blood Pressure, Mean” value [9] was 114.8 mmHg, the “Diastolic Blood Pressure, Mean” value (100 mg, Pre-EtOH) was 71.5 mmHg and the “Heart Rate, Mean” value (100 mg, Pre-EtOH) was 57.0 beats/min. For the same compound, the “Systolic Blood Pressure, Mean” value (100 mg, Pre-EtOH) was 115.7 mmHg, the “creatine kinase value of one subject” value (100 mg, follow-up, abnormal, not clinically significant) was 1350 U/L and the “severe TEAE” value (100 mg, one event) was 0.6%. For the same compound, the “QTcF Interval, Aggregate, Mean” value (100 mg, prior to initiation of repeat EtOH administration session) was 401.3 ms, the “creatine kinase value of one subject, repeat” value (100 mg, repeat 3 days later) was 583 U/L and the “subjects reporting a TEAE” value (200 mg) was 100%. The “Diastolic Blood Pressure, Mean” value [10] was 76.5 mmHg, the “Systolic Blood Pressure, Mean” value [10] was 121.7 mmHg and the “Diastolic Blood Pressure, Mean” value [11] was 72.5 mmHg. For the same compound, the “Heart Rate, Mean” value [11] was 84.5 beats/min, the “Systolic Blood Pressure, Mean” value [11] was 124.5 mmHg and the “QTcF Interval, Aggregate, Mean” value (200 mg, 1 hour after initiation of repeat EtOH administration session) was 403.2 ms. The “Diastolic Blood Pressure, Mean” value [12] was 69.8 mmHg, the “Heart Rate, Mean” value [12] was 97.0 beats/min and the “Systolic Blood Pressure, Mean” value [12] was 125.7 mmHg. For the same compound, the “Diastolic Blood Pressure, Mean” value [13] was 68.0 mmHg, the “Heart Rate, Mean” value [13] was 101.3 beats/min and the “Systolic Blood Pressure, Mean” value [13] was 124.0 mmHg.
